Assays:
Format in all cases: in vivo
[1] = test system: redroot pigweed (Amaranthus retroflexus, AMARE); assay: Pre-emerge test, greenhouse herbicide activity screening; details: phytotoxicity rating 0-100, 14 days after application
Outline: (§1)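 Compounds in acetone were track-sprayed at 187 l/ha, 15–1000 g ai/ha, onto sandy loam pots. Pre-emerge seeds were sown one day before spraying, with surface watering afterwards. Post-emerge plants were at the 2–3 leaf stage and sprayed with 0.25% v/v non-ionic surfactant. Injury was rated 0–100 at 14 days.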

[2] = test system: barnyardgrass (Echinochloa crus-galli, ECHCG); assay: as above; details: phytotoxicity rating 0-100, 14 days after application
Outline: (§2)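 Compounds in acetone were track-sprayed at 15–1000 g ai/ha: pre-emergence onto soil sown the previous day, then top-watered to incorporate and later bottom-watered; post-emergence onto 2–3 leaf plants with 0.25% v/v surfactant, bottom-watered only. Ratings on a 0–100 phytotoxicity scale were taken at day 14.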

[3] = test system: common ragweed (Ambrosia artemisizfolia L., AMBEL); assay: as above; details: phytotoxicity rating 0-100, 14 days after application
Outline: as §2

[4] = test system: green foxtail (Setaria viridis, SETVI); assay: as above; details: phytotoxicity rating 0-100, 14 days after application
Outline: as §2

[5] = test system: ivyleaf morningglory (Ipomoea hederacea, IPOHE); assay: as above; details: phytotoxicity rating 0-100, 14 days after application
Outline: as §2

[6] = test system: johnsongrass (Sorghum halepense, SORHA); assay: as above; details: phytotoxicity rating 0-100, 14 days after application
Outline: as §2

[7] = test system: lambsquarters (Chenopodium album, CHEAL); assay: as above; details: phytotoxicity rating 0-100, 14 days after application
Outline: as §2

[8] = test system: large crabgrass (Digitaria sanguinalis, DIGSA); assay: as above; details: phytotoxicity rating 0-100, 14 days after application
Outline: as §2

[9] = test system: sicklepod (Cassia obtusifolia, CASOB); assay: as above; details: phytotoxicity rating 0-100, 14 days after application
Outline: as §2

[10] = test system: velvetleaf (Abutilon theophrasti, ABUTH); assay: as above; details: phytotoxicity rating 0-100, 14 days after application
Outline: as §2

[11] = test system: field corn (Zea mays L., var. Dekalb 535, CORN); assay: Pre-emerge test, crop safety; details: crop damage rating 0-100, 14 days after application
Outline: (§3)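 Applied at 15–1000 g ai/ha from acetone in 187 l/ha spray volume. Post-emergence applications included 0.25% v/v non-ionic surfactant and reached plants sown 8–21 days before. Pre-emergence applications were incorporated by surface watering. Efficacy or crop damage was rated on a 0–100 scale after 14 days.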

[12] = test system: upland rice (Oryza sp., var. Tebonnet, RICE); assay: Pre-emerge test, crop safety; details: crop damage rating 0-100, 14 days after application
Outline: as §3

[13] = test system: barnyardgrass (Echinochloa crus-galli, ECHCG); assay: Post-emerge test, greenhouse herbicide activity screening; details: post-emerge, 14 days after application, rating scale 0-100
Outline: as §1

[14] = test system: green foxtail (Setaria viridis, SETVI); assay: as above; details: post-emerge, 14 days after application, rating scale 0-100
Outline: as §1

[15] = test system: ivyleaf morningglory (Ipomoea hederacea, IPOHE); assay: as above; details: post-emerge, 14 days after application, rating scale 0-100
Outline: as §1

[16] = test system: johnsongrass (Sorghum halepense, SORHA); assay: as above; details: post-emerge, 14 days after application, rating scale 0-100
Outline: as §1

[17] = test system: lambsquarters (Chenopodium album, CHEAL); assay: as above; details: post-emerge, 14 days after application, rating scale 0-100
Outline: as §1

[18] = test system: large crabgrass (Digitaria sanguinalis, DIGSA); assay: as above; details: post-emerge, 14 days after application, rating scale 0-100
Outline: as §1

[19] = test system: redroot pigweed (Amaranthus retroflexus, AMARE); assay: as above; details: post-emerge, 14 days after application
Outline: as §1

[20] = test system: sicklepod (Cassia obtusifolia, CASOB); assay: as above; details: post-emerge, 14 days after application, rating scale 0-100
Outline: as §1

[21] = test system: velvetleaf (Abutilon theophrasti, ABUTH); assay: as above; details: post-emerge, 14 days after application, rating scale 0-100
Outline: as §1

[22] = test system: field corn (Zea mays L., var. Dekalb 535, CORN); assay: Post-emerge test, crop safety; details: post-emerge, 14 days after application, rating scale 0-100
Outline: (§4)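 Rating: 0–100 visual injury, 14 DAA. Application: acetone, 187 l/ha, 15–1000 g ai/ha, flat-fan track sprayer with nozzle 40–45 cm above soil or canopy. Post-emerge runs used 0.25% v/v surfactant on 2–3 leaf plants.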

[23] = test system: upland rice (Oryza sp., var. Tebonnet, RICE); assay: Post-emerge test, crop safety; details: post-emerge, 14 days after application, rating scale 0-100
Outline: as §4

CC(C)Oc1c(Cl)cc(F)c(-n2c(=O)cc(C(F)(F)F)n(C)c2=O)c1NC(=O)c1ccc2ccccc2c1 [2-197]
90: Pre-emerge Herbicidal Activity ABUTH ([10]; 63 g ai/ha) | phytotoxicity rating IPOHE ([15]; 250 g ai/ha)
80: Pre-emerge Herbicidal Activity DIGSA ([8]; 63 g ai/ha) | Pre-emerge Herbicidal Activity RICE ([12]; 250 g ai/ha) | phytotoxicity rating CASOB ([20]; 63 g ai/ha) | phytotoxicity rating CASOB ([20]; 250 g ai/ha)
50: Pre-emerge Herbicidal Activity ECHCG ([2]; 250 g ai/ha) | Pre-emerge Herbicidal Activity SETVI ([4]; 63 g ai/ha) | Pre-emerge Herbicidal Activity IPOHE ([5]; 250 g ai/ha) | Pre-emerge Herbicidal Activity CASOB ([9]; 250 g ai/ha) | phytotoxicity rating SORHA ([16]; 250 g ai/ha)
0: Pre-emerge Herbicidal Activity ECHCG ([2]; 63 g ai/ha) | Pre-emerge Herbicidal Activity SORHA ([6]; 63 g ai/ha) | Pre-emerge Herbicidal Activity CASOB ([9]; 63 g ai/ha) | Pre-emerge Herbicidal Activity CORN ([11]; 63 g ai/ha) | Pre-emerge Herbicidal Activity CORN ([11]; 250 g ai/ha) | phytotoxicity rating ECHCG ([13]; 63 g ai/ha) | phytotoxicity rating SORHA ([16]; 63 g ai/ha)
100: Pre-emerge Herbicidal Activity AMARE ([1]; 63 g ai/ha) | Pre-emerge Herbicidal Activity AMARE ([1]; 250 g ai/ha) | Pre-emerge Herbicidal Activity AMBEL ([3]; 63 g ai/ha) | Pre-emerge Herbicidal Activity AMBEL ([3]; 250 g ai/ha) | Pre-emerge Herbicidal Activity SETVI ([4]; 250 g ai/ha) | Pre-emerge Herbicidal Activity CHEAL ([7]; 63 g ai/ha) | Pre-emerge Herbicidal Activity CHEAL ([7]; 250 g ai/ha) | Pre-emerge Herbicidal Activity DIGSA ([8]; 250 g ai/ha) | Pre-emerge Herbicidal Activity ABUTH ([10]; 250 g ai/ha) | phytotoxicity rating IPOHE ([15]; 63 g ai/ha) | phytotoxicity rating CHEAL ([17]; 63 g ai/ha) | phytotoxicity rating CHEAL ([17]; 250 g ai/ha) | phytotoxicity rating AMARE ([19]; 63 g ai/ha, rating scale 0-100 (0 no damage, 100 complete death)) | phytotoxicity rating AMARE ([19]; 250 g ai/ha, rating scale 0-100) | phytotoxicity rating ABUTH ([21]; 63 g ai/ha) | phytotoxicity rating ABUTH ([21]; 250 g ai/ha)
30: Pre-emerge Herbicidal Activity IPOHE ([5]; 63 g ai/ha) | Pre-emerge Herbicidal Activity RICE ([12]; 63 g ai/ha) | phytotoxicity rating RICE (crop damage) ([23]; 250 g ai/ha)
10: phytotoxicity rating SETVI ([14]; 63 g ai/ha) | phytotoxicity rating DIGSA ([18]; 63 g ai/ha) | phytotoxicity rating DIGSA ([18]; 250 g ai/ha) | phytotoxicity rating CORN (crop damage) ([22]; 63 g ai/ha) | phytotoxicity rating CORN (crop damage) ([22]; 250 g ai/ha)
20: Pre-emerge Herbicidal Activity SORHA ([6]; 250 g ai/ha) | phytotoxicity rating ECHCG ([13]; 250 g ai/ha) | phytotoxicity rating SETVI ([14]; 250 g ai/ha) | phytotoxicity rating RICE (crop damage) ([23]; 63 g ai/ha)
